Reference: patent publication US9181318B2, “Method of screening a drug such as insulin secretagogue” (JNC Corporation, priority 2009, dated 2015)

Test system: insulin-GLase-expressed MIN6 cells (mouse pancreatic β cells)
Experiment: Secretion of insulin-GLase fusion protein from transformed MIN6 cells, luminescence (luciferase) activity in the medium
Assay type: cell-based
Details: glibenclamide in low glucose-modified KRHB buffer; aliquots taken 0-30 minutes; control 2 mM glucose; FIG. 9
Experimental: Mouse pancreatic β cells, MIN6 strains, were cultured in high glucose DMEM (manufactured by Sigma) supplemented with 10% fetal calf serum (manufactured by Invitrogen) and 50 μM of 2-mercaptoethanol. The expression vector obtained in EXAMPLE 1-1 was transfected to the MIN6 cell line using LipofectAMINE 2000 (manufactured by Invitrogen). After the transfection, the cells were incubated in a CO2 incubator at 37° C. for 24 hours. The secretion expression of the fusion Gaussia luciferase protein in the transformant was confirmed by measuring the luminescence activity with a Luminometer AB2200 (manufactured by Atto Corporation) using coelenterazine as a luminescent substrate, in accordance with the method described in Biochem. Biophys. Res. Commun., 365, 96-101 (2007). As a result, the luminescence activity in the cultured medium by high glucose (20 mM glucose) stimulation to the transformed MIN6 cells increased by about 7 times as compared to that prior to the treatment (FIG. 1). […] Glibenclamide, which is a sulfonylurea type hypoglycemic agent, promotes the secretion of endogenous insulin to lower blood glucose levels. This promotion of insulin secretion was examined using the insulin-GLase-expressed MIN6 cells to assess the effect. […]

COc1ccc(Cl)cc1C(=O)NCCc1ccc(S(=O)(=O)NC(=O)NC2CCCCC2)cc1 [glibenclamide, Glibenclamide]
insulin secretion (luciferase activity of secreted insulin-GLase): promoted
